Legend:
[1] = tested on: adults with ADHD; experiment: Study A: ABT-894 Adult ADHD Dose-Ranging crossover clinical study, efficacy rating scales; type: in vivo, human; conditions: Atomoxetine 40 mg BID
Method: (§1) A clinical study (Study A) was conducted to assess the safety and efficacy of ABT-894 compared to placebo in adults with ADHD and to evaluate the dose-response relationship.
A total of 243 subjects aged 18 to 60 years old meeting DSM-IV-TR criteria for ADHD were randomized across the 5 dose groups. Male or female patients were included. […] The disposition of the study subjects is further discussed with the study results below.
(§2) Subjects in each dose group received, in random order, both ABT-894 and placebo according to a 2×2 crossover design. Each treatment period was 4 weeks separated by a 2-week washout period.
Each site was assigned to one of two cohorts (Cohort A or Cohort B) in approximately a 3:2 ratio. Subjects in Cohort A were randomized in equal proportions to one of 6 treatment sequences in 3 dose groups, and subjects in Cohort B were randomized in equal proportions to one of 4 treatment sequences in 2 dose groups, as shown in Table 1. Within each dose group subjects received either ABT-894 or atomoxetine in Period 1 and placebo in Period 2, or placebo in Period 1 and ABT-894 or atomoxetine in Period 2.
The study medication was dispensed in the form of a capsule. Each capsule contained ABT-894, atomoxetine, or placebo. The capsules were made to look identical.
The primary efficacy endpoint was the Conners' Adult ADHD Rating Scale—Investigator Rated (CAARS:Inv) Total Score (18 items) at the final evaluation of each 4-week treatment period. The CAARS:Inv was assessed at baseline and Days 7. 14. 21, and 28 of each period. Each CAARS:Inv item was rated on a 4-point scale of frequency of occurrence (0=not at all, never; 3=very much. very frequently) during the previous 7 days.
(§3) Secondary efficacy endpoints included the CAARS:Inv Inattentive and Hyperactive/Impulsive Subscale Scores, Clinical Global Impression-ADHD-Severity Scale (CGI-ADHD-S). Adult ADHD Investigator Symptom Report Scale (AISRS), including total and subscales, and the Self-rated Connors Adult ADHD Rating Scale (CAARS-Self). Health outcomes including the Adult ADHD Quality of Life Scale (AAQoL) and Work Productivity and Activity Impairment Questionnaire (WPAI) were used to evaluate the validity of these scales in this study population for use in subsequent clinical trials.
The primary analysis was performed on each dose group separately according to the Statistical Analysis Plan (SAP). The primary statistical model that was used for analyzing the primary efficacy variable, the CAARS:INV total score, and all other secondary efficacy variables was determined by a SAP specified testing procedure. The comparability between two sequences for a given dose group with respect to the difference between period-specific baselines was tested using a one-way ANCOVA with the term of treatment and the Period I baseline as the covariate at the significance level of 0.10. The equal residual effect from Period I to Period II between two different sequences for a given dose group was tested using a standard model for cross-over data analysis, Grizzle model, on the term of “sequence” at the significance level of 0.10.
After the study blind was broken, across 5 dose groups. all the tests accepted the null hypothesis that there was no statistically significant treatment effect for the differences between the period-specific baselines. The tests also accepted the null hypothesis that there was no period residual effect in any of the dose groups. Accordingly, the Grizzle model was used as the primary analysis model to analyze treatment group difference for CAARS:INV total score at Day 28 for each dose group. The Grizzle Model was carried out by SAS PROC Mixed with the terms of study center. sequence, subjects within sequence, period, treatment, as well as period-specific baselines as covariates.
The primary efficacy dataset included all subjects who completed both periods of the study (completers dataset). […]

[2] = tested on: adults with ADHD; experiment: Study A: patient-reported health outcomes (AAQoL, WPAI); type: in vivo, human; design: WPAI Absenteeism (employed), Mean Diff. / WPAI Impaired Work Effectiveness (employed), Mean Diff. / AAQoL Total, Mean Diff. / WPAI Overall Activity Impairment (all), Mean Diff. / WPAI Overall Work Impairment (employed), Mean Diff.: scale not given here; conditions: ATX 40 mg BID
Method: as §1, §2, §3

[3] = tested on: adults with ADHD; experiment: Study A: weight and vital signs; type: in vivo, human; conditions: Atomoxetine 40 mg BID, final evaluation (LOCF)
Method: The treatment group differences in vital signs were analyzed using a Grizzle Model similar to the model used for the efficacy analyses with the exclusion of period-specific baselines.

[4] = tested on: adults with ADHD; experiment: Study A: treatment-emergent adverse events (safety dataset); conditions: Atomoxetine 40 mg BID, N = 50

Q: For CNCC[C@@H](Oc1ccccc1C)c1ccccc1 [Atomoxetine, (3R)-N-methyl-3-(2-methylphenoxy)-3-phenyl-propan-1-amine, reference compound], which “AISRS Hyperactivity Score, mean difference from placebo” value ([1]; day 28, completers) is on record?
A: The value was −3.29 (−5.4, −1.2).

Q: And the “AISRS Inattention Score, mean difference from placebo” value ([1]; day 28, completers)?
A: Its value is −3.81 (−6.1, −1.6).

Q: And the “AISRS Total Score, mean difference from placebo” value ([1]; day 28, completers)?
A: Its value is −7.18 (−11.5, −2.9).

Q: What about the “CAARS:Self ADHD Index, mean difference from placebo” value ([1]; day 28, completers) of the same compound?
A: Its value is −3.08 (−4.8, −1.3).

Q: And the “CAARS:Self Hyperactivity Score, mean difference from placebo” value ([1]; day 28, completers)?
A: Its value is −1.43 (−2.4, −0.5).

Q: And the “CAARS:Self Impulsivity Score, mean difference from placebo” value ([1]; day 28, completers)?
A: Its value is −1.17 (−1.9, −0.5).

Q: And the “CAARS:Self Inattention/Memory Score, mean difference from placebo” value ([1]; day 28, completers)?
A: The value was −1.56 (−2.5, −0.6).

Q: What about the “CAARS:Self Problem with Self-concept Score, mean difference from placebo” value ([1]; day 28, completers) of the same compound?
A: The value was −0.70 (−1.5, 0.1).

Q: What about the “CAARS:Self Total Score, mean difference from placebo” value ([1]; day 28, completers) of the same compound?
A: Its value is −7.12 (−10.9, −3.3).

Q: What about the “CGI-ADHD-S, mean difference from placebo” value ([1]; day 28, completers) of the same compound?
A: Its value is −0.45 (−0.8, −0.1).

Q: What about the “CAARS:Inv ADHD Index, mean difference from placebo” value ([1]; day 28, completers N = 40) of the same compound?
A: The value was −3.00 (−4.9, −1.1).

Q: And the “CAARS:Inv Hyperactive/Impulsive subscale score, mean difference from placebo” value ([1]; day 28, completers N = 40)?
A: The value was −1.43 (−2.4, −0.4).

Q: What about the “CAARS:Inv Inattentive subscale score, mean difference from placebo” value ([1]; day 28, completers N = 40) of the same compound?
A: The value was −3.89 (−6.3. −1.5).

Q: And the “CAARS:Inv Total Score, mean difference from placebo” value ([1]; day 28, completers N = 40)?
A: Its value is −7.98 (−12.5. −3.5).

Q: And the “WPAI Absenteeism (employed), Mean Diff.” value ([2]; N 18)?
A: Its value is 0.019.

Q: And the “WPAI Impaired Work Effectiveness (employed), Mean Diff.” value ([2]; N 18)?
A: The value was −0.143.

Q: What about the “WPAI Overall Work Impairment (employed), Mean Diff.” value ([2]; N 18) of the same compound?
A: Its value is −0.12.

Q: And the “WPAI Overall Activity Impairment (all), Mean Diff.” value ([2]; N 36)?
A: The value was −0.13.

Q: And the “AAQoL Total, Mean Diff.” value ([2]; N 40)?
A: Its value is 7.23.

Q: What about the “Diastolic BP, mean difference from placebo” value [3] of the same compound?
A: The value was 0.72 mm Hg.

Q: And the “Pulse, mean difference from placebo” value [3]?
A: Its value is 4.74 bpm.

Q: What about the “Systolic BP, mean difference from placebo” value [3] of the same compound?
A: Its value is 1.16 mm Hg.

Q: And the “Weight, mean difference from placebo” value [3]?
A: Its value is -0.73 kg.

Q: What about the “Any Adverse Event, % of subjects” value [4] of the same compound?
A: Its value is “(82.0) %”.

Q: And the “Any Adverse Event, number of subjects” value [4]?
A: Its value is 41 subjects.

Q: And the “Decreased appetite, % of subjects” value [4]?
A: Its value is “(12.0) %”.

Q: What about the “Decreased appetite, number of subjects” value [4] of the same compound?
A: The value was 6 subjects.

Q: What about the “Diarrhea, % of subjects” value [4] of the same compound?
A: The value was “(2.0) %”.

Q: And the “Diarrhea, number of subjects” value [4]?
A: The value was 1 subjects.

Q: And the “Dizziness, % of subjects” value [4]?
A: Its value is “(8.0) %”.

Q: And the “Dizziness, number of subjects” value [4]?
A: The value was 4 subjects.

Q: What about the “Dry mouth, % of subjects” value [4] of the same compound?
A: Its value is “(6.0) %”.

Q: And the “Dry mouth, number of subjects” value [4]?
A: Its value is 3 subjects.

Q: And the “Fatigue, % of subjects” value [4]?
A: The value was “(12.0) %”.

Q: And the “Fatigue, number of subjects” value [4]?
A: Its value is 6 subjects.

Q: What about the “Feeling hot and cold, % of subjects” value [4] of the same compound?
A: Its value is “(6.0) %”.

Q: What about the “Feeling hot and cold, number of subjects” value [4] of the same compound?
A: Its value is 3 subjects.

Q: And the “Feeling jittery, % of subjects” value [4]?
A: Its value is “(6.0) %”.

Q: What about the “Feeling jittery, number of subjects” value [4] of the same compound?
A: The value was 3 subjects.

Q: What about the “Headache, % of subjects” value [4] of the same compound?
A: The value was “(14.0) %”.

Q: And the “Headache, number of subjects” value [4]?
A: Its value is 7 subjects.

Q: What about the “Influenza-like illness, % of subjects” value [4] of the same compound?
A: The value was “(6.0) %”.

Q: What about the “Influenza-like illness, number of subjects” value [4] of the same compound?
A: The value was 3 subjects.

Q: And the “Lethargy, % of subjects” value [4]?
A: Its value is “(6.0) %”.

Q: And the “Lethargy, number of subjects” value [4]?
A: Its value is 3 subjects.

Q: What about the “Muscle Strain, % of subjects” value [4] of the same compound?
A: Its value is “(0) %”.

Q: And the “Muscle Strain, number of subjects” value [4]?
A: The value was 0 subjects.

Q: What about the “Nasal congestion, % of subjects” value [4] of the same compound?
A: Its value is “(4.0) %”.

Q: And the “Nasal congestion, number of subjects” value [4]?
A: Its value is 2 subjects.

Q: And the “Nausea, % of subjects” value [4]?
A: The value was “(20.0) %”.

Q: And the “Nausea, number of subjects” value [4]?
A: Its value is 10 subjects.

Q: And the “Parathesia, % of subjects” value [4]?
A: Its value is “(10.0) %”.

Q: What about the “Parathesia, number of subjects” value [4] of the same compound?
A: Its value is 5 subjects.

Q: What about the “Sleep disturbances, % of subjects” value [4] of the same compound?
A: The value was “(16.0) %”.

Q: What about the “Sleep disturbances, number of subjects” value [4] of the same compound?
A: The value was 8 subjects.

Q: What about the “Somnolence, % of subjects” value [4] of the same compound?
A: The value was “(8.0) %”.

Q: And the “Somnolence, number of subjects” value [4]?
A: Its value is 4 subjects.

Q: What about the “Upper RTI, % of subjects” value [4] of the same compound?
A: The value was “(4.0) %”.

Q: And the “Upper RTI, number of subjects” value [4]?
A: Its value is 2 subjects.

Q: What about the “Vomiting, % of subjects” value [4] of the same compound?
A: Its value is “(2.0) %”.

Q: What about the “Vomiting, number of subjects” value [4] of the same compound?
A: The value was 1 subjects.

— patent publication US8222278B2, “Treatment of attention-deficit/hyperactivity disorder” (Abbott Laboratories, priority 2008, dated 2012)
